Drawing on patent publication US10494380B2, “Nitrogen-containing tricyclic derivatives having HIV replication inhibitory activity” (priority 2015, dated 2019), this text covers EC50 for 49 molecules.

As usually defined, the pEC50 is the EC50 on a negative log10 scale, so that one unit is a factor of ten.

In the assay the test system is T125A mutant virus (HIV-1 NL-432 recombinant molecular clone, IN gene). The assay is described as follows: HIV replication inhibition assay against integrase 124/125 mutant virus (Test Example 2). It is filed as cell-based. As to the method: Persistently HIV (HTLV-IIIB strain) infected human T cell strain Molt-4 clone8 was cultured in RPMI-1640 medium supplemented with 10% fetal bovine serum and the supernatant was filtered, then the virus titer was measured and stored at −80° C. Polymorphic mutations in HIV-1-infected patients have been observed in amino acids 124 and 125 on the HIV-1 integrase (IN) gene. A point mutation was introduced on the amino acids 124 and/or 125 of IN gene of the HIV-1 NL-432 recombinant molecular clone to generate a mutant virus plasmid construct. These mutant virus plasmids were transfected into 293T cells, and after two days, the supernatant was filtered and then the virus titer was measured and stored at −80° C. Each anti-HIV active substance was diluted with culture medium described above to the designated concentration, which was dispensed into 96-well microtiter plate by 50 μL. Next, 100 μL of MT-4 cell suspension (2.5×10^4 cells) was dispensed into each well, then 50 μl of HIV-containing supernatant diluted with culture medium described above was added thereto (60 pfu (plaque forming unit)).
Cells were cultured at 37° C. in CO2 incubator for four days, then 30 μL of MTT (3-(4,5-dimethylthiazole-2-yl)-2,5-diphenyltetrazolyum bromide) reagent (5 mg/mL in PBS) was added to all wells followed by incubation for 1 hour. In this step, MTT was reduced to insoluble formazan in living cells. To elute generated formazan, 150 μL of the culture supernatant was removed from all wells, then 150 μL of cell lysis solution (10% Triton X-100 and 0.4% (v/v)-HCl containing isopropanol) was added thereto, followed by shaking with a plate mixer. The formazan was measured with micro plate reader at OD: 560 nm and 690 nm (reference wavelength) and the result was compared with the reference wells. EC50 means the compound concentration at which 50% of cytotoxicity caused by virus infection is inhibited.

The mark [1] stands for this setting: Human immunodeficiency virus 1, MT4, read-out: EC50 against T125A mutant virus, T125A mutant virus (HIV-1 NL-432 IN gene), MT-4 cells, MTT.
Where [2] appears, read: read-out: EC50 against T125A mutant virus, T125A mutant virus (HIV-1 NL-432 IN gene), MT-4 cells, MTT.

SMILES strings stand for the structures. pEC50: −log10 of the molar value. Where two headings read alike, the source gives them in different places.

As to `Cc1c([C@H](OC(C)(C)C)C(=O)O)c(-c2ccc(Cl)cc2)c2cc(C)n3c2c1N(C)S(=O)(=O)CC3` [Compound I-071], under setting [1], the pEC50 is 7.35. As to `Cc1c([C@H](OC(C)(C)C)C(=O)O)c(-c2ccc(F)cc2)c2cc(C)n3c2c1N(c1ncccn1)CC3` [Compound I-123], the pEC50 under setting [1] was 7.85. `Cc1c([C@H](OC(C)(C)C)C(=O)O)c(-c2ccc(F)cc2)c2cc(C)n3c2c1N(C)CC3C` (stereo partly shown) [Compound I-134]: under setting [2], the pEC50 is 8.08.

On to `CCNC(=O)N1CCn2c(C)cc3c(-c4ccc(Cl)cc4)c([C@H](OC(C)(C)C)C(=O)O)c(C)c1c32` [Compound I-038], for which the pEC50 under setting [1] is 7.35. On the same count and under the same terms, the same measure for `Cc1c([C@H](OC(C)(C)C)C(=O)O)c(-c2ccc(Cl)cc2)c2cc(Cl)n3c2c1N(S(C)(=O)=O)CC3` [Compound I-094]: 7.92. Same read-out and setting: the same measure for `COCC(=O)N1CCn2c(C)cc3c(-c4ccc(C)cc4)c([C@H](OC(C)(C)C)C(=O)O)c(C)c1c32` [Compound I-047]: 7.34; for `Cc1c([C@H](OC(C)(C)C)C(=O)O)c(-c2ccc(F)cc2)c2cc(C)n3c2c1N(C)[C@@H](C)C3` [Compound I-093]: 7.80; for `COCC[C@H]1Cn2c(C)cc3c(-c4ccc(Cl)cc4)c([C@H](OC(C)(C)C)C(=O)O)c(C)c(c32)N1C` [Compound I-109]: 7.82. The same measure, in the same setting: next, `COC(=O)N1c2c(C)c([C@H](OC(C)(C)C)C(=O)O)c(-c3ccc(Cl)cc3)c3cc(C)n(c23)C[C@H]1C` [Compound I-111]: 8.38; `Cc1c([C@H](OC(C)(C)C)C(=O)O)c(-c2ccc(Cl)cc2)c2cc(C)n3c2c1N(CCN(C)C)CC3` [Compound I-075]: 7.62. As for `Cc1c([C@H](OC(C)(C)C)C(=O)O)c(-c2ccc(Cl)cc2)c2cc(C)n3c2c1N(C)S(=O)(=O)C3` [Compound I-072], under setting [1], the pEC50 is 7.89.

Take `Cc1c([C@H](OC(C)(C)C)C(=O)O)c(-c2ccc(Cl)cc2)c2cc(C)n3c2c1N(S(C)(=O)=O)[C@@H](CF)C3` [Compound I-095]: the pEC50 under setting [1] is 7.85. Same read-out and setting: next, `[2H]C1([2H])N(C(=O)OC)c2c(C)c([C@H](OC(C)(C)C)C(=O)O)c(-c3ccc(Cl)cc3)c3cc(C)n(c23)C1([2H])[2H]` [Compound I-097]: 8.01. With `Cc1c([C@H](OC(C)(C)C)C(=O)O)c(-c2ccc(Cl)cc2)c2cc(C)n3c2c1N(CC(F)F)CC3` [Compound I-035], the pEC50 under setting [1] was 7.85. Still for that read-out and setting: the same measure for `Cc1c([C@H](OC(C)(C)C)C(=O)O)c(-c2ccc(Cl)cc2)c2cc(C)n3c2c1N(C)CC3(C)C` [Compound I-127]: 7.80; for `Cc1c([C@H](OC(C)(C)C)C(=O)O)c(-c2ccc(Cl)cc2)c2cc(C)n3c2c1N1C(=O)OC[C@@H]1C3` [Compound I-146]: 7.80.

As to `Cc1c([C@H](OC(C)(C)C)C(=O)O)c(-c2ccc(Cl)cc2)c2cc(C)n3c2c1N(C)CC3C` (stereo partly shown) [Compound I-090], the pEC50 under setting [2] is 7.41. As for `Cc1c([C@H](OC(C)(C)C)C(=O)O)c(-c2ccc(Cl)cc2)c2cc(C)n3c2c1N(C)[C@@H](C)C3` [Compound I-053], the pEC50 under setting [1] is 8.25. As for `Cc1ccc(-c2c([C@H](OC(C)(C)C)C(=O)O)c(C)c3c4c2cc(C)n4CCN3c2ncc(Oc3ccccn3)cn2)cc1` [Compound I-339], the negative-log EC50 (pEC50) under setting [1] was 7.96. Take `COCCc1cnc(N2CCn3c(C)cc4c(-c5ccc(C)cc5)c([C@H](OC(C)(C)C)C(=O)O)c(C)c2c43)nc1` [Compound I-336]: the pEC50 under setting [1] is 8.57. On the same count and under the same terms, next, `Cc1c([C@H](OC(C)(C)C)C(=O)O)c(-c2ccc(Cl)cc2)c2cc(C)n3c2c1N(c1ncc(OCc2ccc(F)cc2)cn1)CC3` [Compound I-236]: 8.00. As to `Cc1ccc(-c2c([C@H](OC(C)(C)C)C(=O)O)c(C)c3c4c2cc(C)n4C2(CCCC2)CN3C)cc1` [Compound I-302], the pEC50 (T125A mutant virus (HIV-1 NL-432 IN gene), MT-4 cells, MTT, read-out: EC50 against T125A mutant virus) was 7.37. Turning to `Cc1ccc(-c2c([C@H](OC(C)(C)C)C(=O)O)c(C)c3c4c2cc(C)n4CCN3c2ncc(CO)cn2)cc1` [Compound I-290], the pEC50 under setting [1] was 7.66. On to `[2H]C1([2H])N(C)c2c(C)c([C@H](OC(C)(C)C)C(=O)O)c(-c3ccc(Cl)cc3)c3cc(C)n(c23)C1([2H])[2H]` [Compound I-066], for which, under setting [1], the pEC50 is 8.40. For the molecule `Cc1c([C@H](OC(C)(C)C)C(=O)O)c(-c2ccc(Cl)cc2)c2cc(C)n3c2c1N(C(=O)C1CC1)[C@@H](C)C3` [Compound I-070], the negative-log EC50 (pEC50) under setting [1] was 7.37.

On to `COC(=O)N1CC(C)n2c(C)cc3c(-c4ccc(Cl)cc4)c([C@H](OC(C)(C)C)C(=O)O)c(C)c1c32` (stereo partly shown) [Compound I-119], for which the pEC50 under setting [2] was 8.55. Take `Cc1c([C@H](OC(C)(C)C)C(=O)O)c(-c2ccc(Cl)cc2)c2cc(C)n3c2c1N(Cc1ccncc1)CC3` [Compound I-135]: under setting [1], the pEC50 is 8.09.

Consider `Cc1c([C@H](OC(C)(C)C)C(=O)O)c(-c2ccc(Cl)cc2)c2cc(C)n3c2c1N1C(=O)OCC[C@H]1C3` [Compound I-129], for which the pEC50 under setting [1] was 7.05.

Take `Cc1coc(N2CCn3c(C)cc4c(-c5ccc(Cl)cc5)c([C@H](OC(C)(C)C)C(=O)O)c(C)c2c43)n1` [Compound I-150]: the pEC50 under setting [1] was 7.82.

With `CCc1ccc(-c2c([C@H](OC(C)(C)C)C(=O)O)c(C)c3c4c2cc(C)n4CCN3C)cc1` [Compound I-082], under setting [1], the pEC50 is 8.21. The same measure, in the same setting: next, `COc1ccc(-c2c([C@H](OC(C)(C)C)C(=O)O)c(C)c3c4c2cc(C)n4CCN3C)cc1` [Compound I-074]: 7.57; `Cc1ccc(-c2c([C@H](OC(C)(C)C)C(=O)O)c(C)c3c4c2cc(C)n4CCN3CCN2CCOCC2)cc1` [Compound I-131]: 7.82; `Cc1ccc(-c2c([C@H](OC(C)(C)C)C(=O)O)c(C)c3c4c2cc(C)n4C[C@@H](C)N3CCN2CCOCC2)cc1` [Compound I-158]: 8.34. Still for that read-out and setting: next, `Cc1c([C@H](OC(C)(C)C)C(=O)O)c(-c2ccc(Cl)cc2)c2cc(C)n3c2c1N(C)C(c1ccccc1)C3` (stereo partly shown) [Compound I-334]: 7.03; `Cc1c([C@H](OC(C)(C)C)C(=O)O)c(-c2ccc(Cl)cc2)c2c(F)c(C)n3c2c1N(S(C)(=O)=O)CC3` [Compound I-052]: 8.05; `Cc1c([C@H](OC(C)(C)C)C(=O)O)c(-c2ccc(Cl)cc2)c2cc(C)n3c2c1N(S(C)(=O)=O)[C@@H](C)C3` [Compound I-036]: 8.19. Same read-out and setting: next, `Cc1c([C@H](OC(C)(C)C)C(=O)O)c(-c2ccc(Cl)cc2)c2ccn3c2c1N(S(C)(=O)=O)CC3` [Compound I-056]: 7.23. On to `Cc1c([C@H](OC(C)(C)C)C(=O)O)c(-c2ccc(Cl)cc2)c2cc(C)n3c2c1NC(=O)C3C` (stereo partly shown) [Compound I-055], for which the pEC50 under setting [2] was 7.62. For the molecule `[2H]C([2H])([2H])N1c2c(C)c([C@H](OC(C)(C)C)C(=O)O)c(-c3ccc(F)cc3)c3cc(C)n(c23)C([2H])([2H])C1([2H])[2H]` [Compound I-106], the negative-log EC50 (pEC50) under setting [1] is 7.96. Same read-out and setting: next, `COC(=O)N1c2c(C)c([C@H](OC(C)(C)C)C(=O)O)c(-c3ccc(Cl)cc3)c3cc(C)n(c23)C[C@@H]1C` [Compound I-065]: 7.92; `C=CCN1CCn2c(C)cc3c(-c4ccc(C)cc4)c([C@H](OC(C)(C)C)C(=O)O)c(C)c1c32` [Compound I-294]: 7.80; `COC[C@@H]1Cn2c(C)cc3c(-c4ccc(Cl)cc4)c([C@H](OC(C)(C)C)C(=O)O)c(C)c(c32)N1S(C)(=O)=O` [Compound I-087]: 7.70. Still for that read-out and setting: next, `CC(=O)N1c2c(C)c([C@H](OC(C)(C)C)C(=O)O)c(-c3ccc(Cl)cc3)c3cc(C)n(c23)C[C@@H]1C` [Compound I-046]: 7.74; `Cc1c([C@H](OC(C)(C)C)C(=O)O)c(-c2ccc(Cl)cc2)c2cc(C)n3c2c1N(S(C)(=O)=O)[C@H](C)C3` [Compound I-060]: 7.85; `Cc1c([C@H](OC(C)(C)C)C(=O)O)c(-c2ccc(Cl)cc2)c2cc(C)n3c2c1N(S(C)(=O)=O)[C@@H](C(F)F)C3` [Compound I-088]: 7.57.

`COc1cc(Oc2cnc(N3CCn4c(C)cc5c(-c6ccc(C)cc6)c([C@H](OC(C)(C)C)C(=O)O)c(C)c3c54)nc2)nc(OC)n1` [Compound I-346]: under setting [1], the pEC50 was 8.00. Still for that read-out and setting: next, `[2H]C1([2H])N(C)c2c(C)c([C@H](OC(C)(C)C)C(=O)O)c(-c3ccc(F)cc3)c3cc(C)n(c23)C1([2H])[2H]` [Compound I-105]: 7.96. The same measure, in the same setting: the same measure for `Cc1ccc(-c2c([C@H](OC(C)(C)C)C(=O)O)c(C)c3c4c2cc(C)n4C[C@@H](C)N3CCN(C)C)cc1` [Compound I-148]: 7.66; for `[2H]C1([2H])N(S(C)(=O)=O)c2c(C)c([C@H](OC(C)(C)C)C(=O)O)c(-c3ccc(Cl)cc3)c3c(F)c(C)n(c23)C1([2H])[2H]` [Compound I-040]: 7.96.
